Laboratory results published in ChEMBL document CHEMBL5150013, “The Repertoire of Small-Molecule PET Probes for Neuroinflammation Imaging: Challenges and Opportunities beyond TSPO” (J Med Chem, 2021).
Each block holds one compound with its values, some of them ahead of it.

Columns and labels:
[1] = biological target: Sphingosine 1-phosphate receptor 2 (Homo sapiens, UniProt O95136)
[2] = cynomolgus monkey, in vivo, 2 h
[3] = biological target: Cannabinoid receptor 2 (Homo sapiens, UniProt P34972)
Cannabinoid receptor 2, sequence (P34972 whole entry): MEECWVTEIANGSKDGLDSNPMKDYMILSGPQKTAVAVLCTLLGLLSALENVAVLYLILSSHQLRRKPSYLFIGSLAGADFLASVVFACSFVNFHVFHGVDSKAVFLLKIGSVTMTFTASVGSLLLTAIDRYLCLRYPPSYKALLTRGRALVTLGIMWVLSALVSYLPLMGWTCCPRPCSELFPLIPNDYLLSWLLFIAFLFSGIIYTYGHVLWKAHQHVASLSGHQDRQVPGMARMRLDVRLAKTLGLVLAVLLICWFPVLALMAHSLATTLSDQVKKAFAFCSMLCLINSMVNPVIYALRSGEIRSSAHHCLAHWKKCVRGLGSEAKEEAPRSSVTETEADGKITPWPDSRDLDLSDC

[4] = biological target: T1, Prostaglandin G/H synthase 2 (Homo sapiens, UniProt P35354)
T1 sequence (P35354 whole entry): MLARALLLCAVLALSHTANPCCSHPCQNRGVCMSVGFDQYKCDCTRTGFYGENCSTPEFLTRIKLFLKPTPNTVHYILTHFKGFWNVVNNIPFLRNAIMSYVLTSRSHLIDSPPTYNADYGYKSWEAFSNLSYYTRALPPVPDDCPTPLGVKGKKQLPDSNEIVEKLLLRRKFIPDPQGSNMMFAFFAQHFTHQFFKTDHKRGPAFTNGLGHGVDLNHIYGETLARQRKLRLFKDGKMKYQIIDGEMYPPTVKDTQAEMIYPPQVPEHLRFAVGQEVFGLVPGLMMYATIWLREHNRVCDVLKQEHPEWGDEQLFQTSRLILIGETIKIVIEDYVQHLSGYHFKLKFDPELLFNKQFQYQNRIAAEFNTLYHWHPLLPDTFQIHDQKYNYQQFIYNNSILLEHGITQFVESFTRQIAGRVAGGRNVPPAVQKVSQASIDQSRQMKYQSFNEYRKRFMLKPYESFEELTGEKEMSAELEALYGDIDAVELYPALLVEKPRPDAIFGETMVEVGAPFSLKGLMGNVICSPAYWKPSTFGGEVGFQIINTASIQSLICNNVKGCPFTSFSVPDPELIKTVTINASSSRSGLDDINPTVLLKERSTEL

[5] = rat, in vivo, 2 h
[6] = physchem; conditions: octanol/water
[7] = biological target: Prostaglandin G/H synthase 1 (Homo sapiens, UniProt P23219)
Prostaglandin G/H synthase 1, sequence (P23219 whole entry): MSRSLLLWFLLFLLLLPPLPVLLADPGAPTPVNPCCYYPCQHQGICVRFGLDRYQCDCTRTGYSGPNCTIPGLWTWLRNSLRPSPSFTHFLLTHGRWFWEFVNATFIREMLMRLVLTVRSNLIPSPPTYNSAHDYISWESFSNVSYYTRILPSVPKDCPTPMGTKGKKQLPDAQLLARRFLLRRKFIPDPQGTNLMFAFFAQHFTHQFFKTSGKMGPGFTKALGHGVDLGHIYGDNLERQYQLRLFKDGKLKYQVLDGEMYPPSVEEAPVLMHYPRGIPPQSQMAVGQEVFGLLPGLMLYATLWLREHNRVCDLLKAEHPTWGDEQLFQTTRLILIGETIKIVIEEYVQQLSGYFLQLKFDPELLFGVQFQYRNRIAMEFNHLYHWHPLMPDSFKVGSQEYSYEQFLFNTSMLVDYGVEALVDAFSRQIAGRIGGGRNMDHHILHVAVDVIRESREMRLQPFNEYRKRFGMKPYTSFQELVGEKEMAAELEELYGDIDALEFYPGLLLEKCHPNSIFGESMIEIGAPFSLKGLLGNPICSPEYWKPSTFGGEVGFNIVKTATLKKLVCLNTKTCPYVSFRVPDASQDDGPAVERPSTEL

[8] = in vivo; conditions: rat
[9] = biological target: T2, P2X purinoceptor 7 (Homo sapiens, UniProt Q99572)
T2 sequence (Q99572 whole entry): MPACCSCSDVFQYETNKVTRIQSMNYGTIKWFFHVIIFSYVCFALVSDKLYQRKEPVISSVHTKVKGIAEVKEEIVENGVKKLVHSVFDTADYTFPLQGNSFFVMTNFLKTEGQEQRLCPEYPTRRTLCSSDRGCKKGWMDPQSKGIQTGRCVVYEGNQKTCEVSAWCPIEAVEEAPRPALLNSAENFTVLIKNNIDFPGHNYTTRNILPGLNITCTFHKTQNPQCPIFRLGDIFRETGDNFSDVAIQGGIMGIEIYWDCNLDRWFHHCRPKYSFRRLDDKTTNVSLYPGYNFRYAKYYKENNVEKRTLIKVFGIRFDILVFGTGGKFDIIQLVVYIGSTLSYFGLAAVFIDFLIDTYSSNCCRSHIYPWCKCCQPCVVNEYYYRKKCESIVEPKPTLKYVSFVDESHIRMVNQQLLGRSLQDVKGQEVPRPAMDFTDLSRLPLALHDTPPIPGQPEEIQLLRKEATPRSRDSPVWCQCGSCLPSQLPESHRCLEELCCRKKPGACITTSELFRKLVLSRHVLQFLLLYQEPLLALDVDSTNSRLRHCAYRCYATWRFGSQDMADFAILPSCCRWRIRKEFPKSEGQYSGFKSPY

[10] = mouse, in vivo, 0.05 h
[11] = biological target: P2Y purinoceptor 12 (Homo sapiens, UniProt Q9H244); format: functional
P2Y purinoceptor 12, sequence (Q9H244 whole entry): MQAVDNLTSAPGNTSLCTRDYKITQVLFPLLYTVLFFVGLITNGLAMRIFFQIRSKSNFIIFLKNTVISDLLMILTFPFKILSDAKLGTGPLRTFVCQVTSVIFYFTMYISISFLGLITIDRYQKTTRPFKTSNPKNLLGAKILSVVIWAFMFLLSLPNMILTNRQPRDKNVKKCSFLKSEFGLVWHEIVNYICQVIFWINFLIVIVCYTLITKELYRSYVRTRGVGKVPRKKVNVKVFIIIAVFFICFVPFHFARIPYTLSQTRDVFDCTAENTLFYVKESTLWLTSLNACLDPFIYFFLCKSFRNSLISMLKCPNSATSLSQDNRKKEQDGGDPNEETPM

[12] = biological target: T3, Macrophage colony-stimulating factor 1 receptor (Homo sapiens, UniProt P07333)
T3 sequence (P07333 whole entry): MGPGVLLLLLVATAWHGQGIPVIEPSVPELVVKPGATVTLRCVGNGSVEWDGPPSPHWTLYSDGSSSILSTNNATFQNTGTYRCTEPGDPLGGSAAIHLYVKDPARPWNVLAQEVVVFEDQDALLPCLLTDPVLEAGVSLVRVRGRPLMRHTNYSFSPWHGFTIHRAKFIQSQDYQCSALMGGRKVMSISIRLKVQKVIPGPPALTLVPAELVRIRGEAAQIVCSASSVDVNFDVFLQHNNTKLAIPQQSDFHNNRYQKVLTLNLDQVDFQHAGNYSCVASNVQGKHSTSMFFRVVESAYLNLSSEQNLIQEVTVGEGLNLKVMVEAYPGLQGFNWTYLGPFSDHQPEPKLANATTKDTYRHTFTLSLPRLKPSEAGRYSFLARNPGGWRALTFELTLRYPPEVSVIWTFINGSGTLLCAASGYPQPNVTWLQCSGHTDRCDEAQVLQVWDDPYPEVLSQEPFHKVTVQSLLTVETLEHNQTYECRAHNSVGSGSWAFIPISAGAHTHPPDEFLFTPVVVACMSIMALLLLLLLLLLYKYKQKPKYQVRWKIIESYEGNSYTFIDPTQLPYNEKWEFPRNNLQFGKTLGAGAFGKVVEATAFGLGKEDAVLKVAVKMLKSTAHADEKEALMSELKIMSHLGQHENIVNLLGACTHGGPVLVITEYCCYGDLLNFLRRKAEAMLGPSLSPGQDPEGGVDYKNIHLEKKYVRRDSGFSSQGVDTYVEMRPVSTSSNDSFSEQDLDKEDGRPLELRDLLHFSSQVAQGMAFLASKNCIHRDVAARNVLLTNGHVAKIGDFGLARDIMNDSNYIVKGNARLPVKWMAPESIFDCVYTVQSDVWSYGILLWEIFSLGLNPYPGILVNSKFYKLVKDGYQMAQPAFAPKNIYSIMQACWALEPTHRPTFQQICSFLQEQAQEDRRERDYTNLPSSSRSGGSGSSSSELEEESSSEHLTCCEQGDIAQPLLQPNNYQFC

[13] = biological target: T3, Macrophage colony-stimulating factor 1 receptor; remark: listed apart in the source
[14] = mouse, in vivo
[15] = human, Brain, 2 min
[16] = rhesus monkey, in vivo
[17] = in vivo; conditions: mouse, hcc4006
[18] = in vivo; conditions: mouse
[19] = primates, Brain, 5 min
[20] = rhesus monkey, in vivo, 7 min
[21] = rhesus monkey, in vivo, 7 min; remark: listed apart in the source
[22] = primates, Brain, 1.417 h
[23] = primates, Brain
[24] = mouse, in vivo, 0.5 h
[25] = mouse, in vivo, 0.5 h; remark: listed apart in the source
[26] = mouse, in vivo; remark: listed apart in the source
[27] = biological target: T4, Amine oxidase [flavin-containing] B (Homo sapiens, UniProt P27338)
T4 sequence (P27338 whole entry): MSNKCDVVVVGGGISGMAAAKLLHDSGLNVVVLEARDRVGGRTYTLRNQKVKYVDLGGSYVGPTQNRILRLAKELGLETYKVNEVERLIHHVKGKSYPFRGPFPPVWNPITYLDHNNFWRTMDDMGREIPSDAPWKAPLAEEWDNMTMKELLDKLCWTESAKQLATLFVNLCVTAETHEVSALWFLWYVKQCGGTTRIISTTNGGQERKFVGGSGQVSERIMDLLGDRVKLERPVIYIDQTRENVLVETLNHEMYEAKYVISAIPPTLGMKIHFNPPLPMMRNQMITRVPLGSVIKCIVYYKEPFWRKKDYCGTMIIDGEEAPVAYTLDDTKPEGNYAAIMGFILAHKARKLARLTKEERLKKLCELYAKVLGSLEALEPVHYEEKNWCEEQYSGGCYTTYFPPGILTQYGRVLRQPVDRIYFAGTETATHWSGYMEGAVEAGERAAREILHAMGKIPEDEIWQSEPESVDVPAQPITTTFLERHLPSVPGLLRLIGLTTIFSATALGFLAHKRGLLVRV

[28] = papio anubis, in vivo
[29] = papio anubis, in vivo; remark: listed apart in the source
[30] = biological target: T2, P2X purinoceptor 7; remark: listed apart in the source
[31] = primates, Brain; remark: listed apart in the source
[32] = in vivo; conditions: C57BL/6, mouse
[33] = biological target: T4, Amine oxidase [flavin-containing] B; remark: listed apart in the source
[34] = papio papio, in vivo
[35] = mouse, in vivo; remark: listed apart in the source
[36] = mouse, in vivo, 20 min
[37] = mouse, in vivo; remark: listed apart in the source
[38] = in vivo; conditions: mouse; remark: listed apart in the source
[39] = mouse, in vivo; remark: listed apart in the source
[40] = mouse, in vivo, 10 min
[41] = in vivo; conditions: mouse; remark: listed apart in the source
[42] = in vivo; conditions: mouse; remark: listed apart in the source
[43] = rhesus monkey, in vivo; remark: listed apart in the source
[44] = biological target: Melatonin receptor type 1A (Homo sapiens, UniProt P48039)
Melatonin receptor type 1A, sequence (P48039 whole entry): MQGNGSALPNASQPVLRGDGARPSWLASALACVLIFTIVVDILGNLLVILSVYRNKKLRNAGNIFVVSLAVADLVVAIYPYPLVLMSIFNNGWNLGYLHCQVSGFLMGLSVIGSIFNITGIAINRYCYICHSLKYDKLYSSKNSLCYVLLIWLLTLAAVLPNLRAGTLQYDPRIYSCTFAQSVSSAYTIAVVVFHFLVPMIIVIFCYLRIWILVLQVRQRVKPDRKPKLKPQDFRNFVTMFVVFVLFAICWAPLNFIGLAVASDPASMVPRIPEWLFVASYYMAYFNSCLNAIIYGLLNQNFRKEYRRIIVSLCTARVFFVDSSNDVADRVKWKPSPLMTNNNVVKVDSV

[45] = biological target: Sphingosine 1-phosphate receptor 1 (Homo sapiens, UniProt P21453)
Sphingosine 1-phosphate receptor 1, sequence (P21453 whole entry): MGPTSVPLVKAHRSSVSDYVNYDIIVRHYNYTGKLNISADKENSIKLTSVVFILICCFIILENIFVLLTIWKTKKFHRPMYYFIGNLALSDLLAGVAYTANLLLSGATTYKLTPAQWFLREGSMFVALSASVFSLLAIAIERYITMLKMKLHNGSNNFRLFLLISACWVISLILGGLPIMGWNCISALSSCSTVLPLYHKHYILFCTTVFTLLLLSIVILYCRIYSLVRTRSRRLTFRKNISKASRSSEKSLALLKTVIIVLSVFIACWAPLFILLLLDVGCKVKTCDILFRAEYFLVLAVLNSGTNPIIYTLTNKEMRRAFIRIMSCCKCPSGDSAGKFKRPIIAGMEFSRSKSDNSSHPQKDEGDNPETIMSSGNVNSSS

[46] = primates, Brain, 4 min
[47] = in vivo; conditions: C3H, mouse, iv, 10 mg/kg
[48] = in vivo; conditions: C3H, mouse, iv, 10 mg/kg; remark: listed apart in the source
[49] = rhesus monkey, in vivo; remark: listed apart in the source

Sphingosine 1-phosphate receptor 2, sequence (O95136 whole entry): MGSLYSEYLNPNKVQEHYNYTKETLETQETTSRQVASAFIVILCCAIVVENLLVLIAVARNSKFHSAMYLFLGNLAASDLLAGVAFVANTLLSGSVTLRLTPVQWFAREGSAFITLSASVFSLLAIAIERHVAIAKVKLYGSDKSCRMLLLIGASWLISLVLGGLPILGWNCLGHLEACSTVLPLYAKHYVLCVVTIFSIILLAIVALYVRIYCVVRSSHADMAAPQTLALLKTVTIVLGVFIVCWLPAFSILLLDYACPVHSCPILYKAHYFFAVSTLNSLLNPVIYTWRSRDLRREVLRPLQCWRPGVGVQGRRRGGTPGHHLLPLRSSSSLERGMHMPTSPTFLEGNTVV

SMILES: C#CCN(C)[C@H](C[18F])Cc1ccccc1
SUV [2]: 6

SMILES: CCCCOc1c(OC)ccc2cc(C(=O)NC3CCCCC3)c(=O)[nH]c12
Ki [3]: 9.6 nM

SMILES: CS(=O)(=O)c1ccc(-c2ccsc2-c2ccc(F)cc2)cc1
Ki [4]: 250 nM | SUV [5]: 0.17

SMILES: CCOCCn1cc(C(=O)NC23CC4CC(CC(C4)C2)C3)c(=O)c2cccc(OC)c21
logD [6]: 2.8

SMILES: OCc1cn(Cc2ccc(-c3noc(-c4ccc(OCC[18F])c(C(F)(F)F)c4)n3)cc2)nn1
tissue uptake at 5 min [8]: 0.46 %ID/g

SMILES: N#C/N=C(/NCc1ccc([18F])cc1)Nc1cccc2ncccc12
Ki [9]: 2.9 nM

SMILES: [13CH3]N1C=C(C(N)=O)Cc2ccccc21
SUV [10]: 3.5

SMILES: [11CH3]Oc1ccc(-c2cnc(Cl)n2-c2ccc(S(N)(=O)=O)cc2)cc1F
IC50 [7]: 10000 nM

SMILES: [11CH3]Oc1ccc(Cc2cn[nH]c2)nc1-c1cccc([N+](=O)[O-])c1
Vd [16]: 37%

SMILES: Cc1ccc(-c2ccc3cc(OC[C@H](O)C[18F])ccc3n2)cn1
tissue uptake at 2 min [17]: 7.85 %ID/g | tissue uptake at 2 min [18]: 0.2 %ID/g

SMILES: NS(=O)(=O)c1ccc(-n2nc3ccccc3c2-c2ccc([18F])cc2)cc1
IC50 [7]: 30000 nM

SMILES: OCCOCc1ccc(-c2noc(-c3ccc(OCC[18F])c(C(F)(F)F)c3)n2)cc1
SUV [19]: 3.2

SMILES: [2H]C([2H])([18F])Oc1nc(-c2ccc(OC)cc2)n(-c2ccc(OC)cc2)n1
SUV [20]: 4.11 | SUV [21]: 1.05 | SUV [22]: 1.99 | SUV [23]: 54%

SMILES: COCC1CN(c2noc3cc(OCCCC(F)(F)F)ccc23)[11C](=O)O1 (configuration not stated)
Ki [27]: 2.9 nM | Vd [28]: 10.3 ml/cm3 | Vd [29]: 10.9 ml/cm3

SMILES: COc1ccc(CC(=O)NC(N/C(=N/C#N)Nc2cccc3ncccc23)C(C)(C)C)cc1O[11CH3] (configuration not stated)
IC50 [30]: 40 nM

SMILES: N#CCCn1nc(-c2ccc(OCc3ccccc3)cc2)o[11c]1=O
IC50 [33]: 4 nM | Drug uptake [34]: 70%

SMILES: CN1c2cc(N)ccc2-c2ccc(N)cc2C1c1ccc(OCC[18F])cc1 (configuration not stated)
Drug uptake [35]: 10 %ID/cm3 | Drug uptake [36]: 150%

SMILES: [11CH3]Oc1ccc(-c2c(-c3ccc(S(N)(=O)=O)cc3)[nH]c3ccccc23)cc1
IC50 [7]: 10000 nM

SMILES: O=C1Nc2c(Cl)ccc(OCC[18F])c2C2(CCCCC2)N1
SUV [37]: 1.74 | tissue uptake [38]: 5 %ID/g

SMILES: O=C(O)C1CN(Cc2ccc(-c3noc(-c4ccc(OCC[18F])c(C(F)(F)F)c4)n3)cc2)C1
SUV [40]: 7 | tissue uptake at 5 min [8]: 0.027 %ID/g

SMILES: OCCOCCOCc1ccc(-c2noc(-c3ccc(OCC[18F])c(C(F)(F)F)c3)n2)cc1
SUV [31]: 0.7

SMILES: CS(=O)(=O)c1ccc(-c2cc(O[11CH3])nc(NCc3cccs3)n2)cc1
IC50 [7]: > 1000 nM | Drug uptake [43]: 41%

SMILES: CN1c2cc(N)ccc2-c2ccc(N)cc2C1c1ccc([18F])cc1 (configuration not stated)
SUV [37]: 2.3

SMILES: OCC(O)c1ccc(-c2noc(-c3ccc(OCC[18F])c(C(F)(F)F)c3)n2)cc1 (configuration not stated)
IC50 [45]: 15.4 nM | SUV [46]: 2.5

SMILES: Cc1ccc(-n2nc(C(F)(F)F)cc2-c2ccc(S(=O)(=O)Nc3ccc([18F])cc3)cc2)cc1
IC50 [7]: 100000 nM

SMILES: [11CH3]N1C(=O)CC[C@H]1C(=O)NCc1cccc(C(F)(F)F)c1Cl
IC50 [30]: 3 nM

SMILES: OCc1ccc(-c2noc(-c3ccc(OCC[18F])c(C(F)(F)F)c3)n2)cc1
SUV [46]: 3.8

SMILES: COc1ccc(-n2nc(OCC(F)(F)F)nc2-c2ccc(O[11CH3])cc2)cc1
SUV [31]: 4.29 | SUV [22]: 1.99 | SUV [23]: 54%

SMILES: CN([11CH3])CCc1ccccc1
tissue uptake at 1 min [47]: 7.9 %ID/g | tissue uptake at 1 h [48]: 2.8 %ID/g

SMILES: [11CH3]Oc1ccc(Cc2ccncc2)nc1-c1cccc([N+](=O)[O-])c1
Vd [16]: 48%

Results, then the compound that gave them:

IC50 [1]: 68.5 nM
SMILES: Cc1nn(C)c2nc(NNC(=O)Nc3cc(Cl)nc(Cl)c3)cc(C(C)C)c12

IC50 [7]: 3300 nM
SMILES: CS(=O)(=O)c1ccc(-n2c(-c3ccc(O[11CH3])c(F)c3)cnc2Cl)cc1

EC50 [11]: 60 nM
SMILES: [11CH3]Oc1ccc(Cl)c(C(=O)NCC23CC4(F)CC(F)(CC(F)(C4)C2)C3)c1

Ki [12]: 8 nM | IC50 [13]: 6 nM
SMILES: CCOc1cc2ccc(C(N)=O)c(Nc3ccc(F)cc3F)c2cc1N1CCN([11CH3])CC1

IC50 [7]: 47 nM | SUV [14]: 0.97 | SUV [15]: 1.5
SMILES: COC(=O)C([11CH3])c1cccc(C(=O)c2ccccc2)c1 (configuration not stated)

IC50 [1]: 9.52 nM | SUV [24]: 0.58 | SUV [25]: 0.48
SMILES: Cc1nn(C)c2nc(NNC(=O)C(C)c3cc(Cl)nc(O[11CH3])c3)cc(C(C)C)c12 (configuration not stated)

SUV [26]: 0.6
SMILES: [11CH3]N1CCN(c2ccc(NC(=O)c3ccc(C#N)o3)c(N3CCCCC3)c2)CC1

SUV [31]: 4.26 | SUV [22]: 0.62
SMILES: COc1ccc(-c2nc(O[11CH3])nn2-c2ccc(OC)cc2)cc1

tissue uptake at 1 h [32]: 7 %ID/g
SMILES: Cc1ccccc1-c1ccc(-c2nc(-c3ccc(CN(C)CCC(=O)O)c(F)c3)no2)cc1C(F)(F)F

Drug uptake [39]: 35%
SMILES: CCCCNc1ncc(-c2cccc([18F])n2)c(NC2CCC(O)CC2)n1 (configuration not stated)

tissue uptake at 1 h [41]: 1.74 %ID/g | tissue uptake at 1 h [42]: 3.79 %ID/g
SMILES: CS(=O)(=O)c1ccc(-c2cc(C(F)(F)F)nc(NCc3ccc([18F])cc3)n2)cc1

Ki [44]: 90 nM
SMILES: O=C(c1ccc([18F])cc1)N(Cc1ccccc1)C1CCCCC1

SUV [37]: <= 1.2 | SUV [49]: <= 3.1
SMILES: COc1ccc(COc2ccc(Cc3cnc(N)nc3N)cc2OC)cc1 [GW632580X]
